Data reported in patent publication US8557763B2, “Synthetic peptides that enhance tight junction permeability” (Alba Therapeutics Corporation, priority 2007, dated 2013).
Where no end group is shown, it is not given here. [ ]: non-standard residue; d: D form. dAllylGly = C=CC[C@@H](N)C(=O)O; AllylGly = C=CC[C@H](N)C(=O)O

Experiments:
CaCo2 monolayers [1] = test: Lucifer Yellow (LY) permeability assay through CaCo2 monolayers; type: cell-based; set-up: key to Enhanced LY permeability: + indicates an enhancement of the permeability of the tight junctions were observed; − indicates no enhancement of permeability was observed; settings: CaCo2 monolayers, Lucifer Yellow flux
Description: (§1) Agonists of tight junctions can be identified by their ability to enhance the flux of compounds (e.g. ions, Lucifer Yellow) through a cell monolayer that comprises tight junctions; or by their ability to reduce TEER across a cell monolayer that comprises tight junctions. Treatment of CaCo2 monolayers with peptide FCIGRL (SEQ ID NO: 1) led to a 51-fold enhancement of Lucifer Yellow permeability through CaCo2 monolayers compared to vehicle alone.
(§2) Tight junction agonists can be identified and tested using the following method:
(§3) Determination of TEER and Lucifer Yellow Flux
(§4) Prepare Modified Hank's Balanced Salt Solution (MHBSS) by obtaining 1 L bottle of HBSS removing 10 ml of HBSS and replacing it with 10 ml HEPES buffer pH 7.0. Adjust pH to 7.4±0.1 using concentrated NaOH (10N).
(§5) Remove CaCo-2 cells from incubator, grown on 12-well, 3.0 μM, polycarbonate Transwell® filters (Corning) and record passage#, date cells seeded and age in days.
(§6) Aspirate cell culture medium from both the apical (AP) and basolateral (BL) compartments, replacing with 0.5 ml and 1.5 ml of MHBSS, respectively. Incubate cells at 37° C. for 30 minutes.
(§7) Aspirate solution from the apical compartment of each filter (n=3 per condition) and replace with 0.5 ml of control and test solutions containing Lucifer Yellow and test compound if appropriate.
(§8) Place all plates into incubator set at 37° C. (±0.2), 50 RPM (±5) for a total of 180 minutes.
At t=60, 120 and 180 minutes remove […] from each basolateral compartment and place it in a 96-well plate for Lucifer Yellow analysis, replace with 100 μl of MHBSS.
Make a Lucifer Yellow standard curve with the following dilutions (7500 μM, 3750 μM, 750 μM, 375 μM, 37.5 μM, 7.5 μM, 3.75 μM, 0.75 μM) and pipette 100 μL of each into a 96-well plate except for the first three standards mentioned above which require a 1:10 dilutions prior to transferring to the 96-well plate.
Harvest the remaining start solutions and what is left in each apical compartment into 1.5 ml vials. Freeze at −20° C. for future analysis.
Analyze each 96-well plate in a Tecan Spectra Fluor Plus using Magellan at 485 and 535 nm.
(§9) Cells: CaCo-2 cells passage 40-60 grown on Transwell® plates for 21-28 days
(§10) Culture Medium: DMEM supplemented with 10% fetal bovine serum, 1% NEAA, 1% Penn/Strep
(§11) Buffers: Hank's Balanced Salt Solution (HBSS) without calcium and magnesium
(§12) Flasks: 100×20 mm Tissue culture dish Falcon.
(§13) Plates: 12 well polycarbonate Transwell® filters; 0.3 uM pore size

CaCo2 monolayers [2] = test: Trans Epithelial Electric Resistance (TEER) across CaCo2 monolayers; type: cell-based; set-up: key to Reduced TEER: + indicates an enhancement of the permeability of the tight junctions were observed; − indicates no enhancement of permeability was observed; settings: CaCo2 monolayers
Description: as §1
Treatment of CaCo2 monolayers with peptide FCIGRL led to a 16-fold decrease in TEER across CaCo2 monolayers compared to vehicle alone.
as §2, §3, §4, §5, §6
Using the MilliCell®-ERS instrument (Millipore), measure and record the transepithelial electrical resistance (TEER) across each filter and record.
as §7, §8
At t=30, 60, 120 and 180 minutes, measure and record the transepithelial electrical resistance (TEER) across each filter using the MilliCell-ERS instrument.
as §9, §10, §11, §12, §13

Substance	Enhanced LY permeability (CaCo2 monolayers [1])	Reduced TEER (CaCo2 monolayers [2])
59 (F[AllylGly]IGGL-NH2; N-terminus assumed; SMILES C=CC[C@H](NC(=O)[C@@H](N)Cc1ccccc1)C(=O)N[C@H](C(=O)NCC(=O)NCC(=O)N[C@@H](CC(C)C)C(N)=O)[C@@H](C)CC) [compound 59]	+	+
56 (F[AllylGly]IGDL-NH2; N-terminus assumed; SMILES C=CC[C@H](NC(=O)[C@@H](N)Cc1ccccc1)C(=O)N[C@H](C(=O)NCC(=O)N[C@@H](CC(=O)O)C(=O)N[C@@H](CC(C)C)C(N)=O)[C@@H](C)CC) [compound 56]	+	+
36 (F[AllylGly]KGRL-NH2; N-terminus assumed; SMILES C=CC[C@H](NC(=O)[C@@H](N)Cc1ccccc1)C(=O)N[C@@H](CCCCN)C(=O)NCC(=O)N[C@@H](CCCNC(=N)N)C(=O)N[C@@H](CC(C)C)C(N)=O) [compound 36]	+	+
71 (F[AllylGly]IGPL-NH2; N-terminus assumed; SMILES C=CC[C@H](NC(=O)[C@@H](N)Cc1ccccc1)C(=O)N[C@H](C(=O)NCC(=O)N1CCC[C@H]1C(=O)N[C@@H](CC(C)C)C(N)=O)[C@@H](C)CC) [compound 71]	+	−
25 (F[AllylGly]LGRL-NH2; N-terminus assumed; SMILES C=CC[C@H](NC(=O)[C@@H](N)Cc1ccccc1)C(=O)N[C@@H](CC(C)C)C(=O)NCC(=O)N[C@@H](CCCNC(=N)N)C(=O)N[C@@H](CC(C)C)C(N)=O) [compound 25]	+	+
2 (F[AllylGly]IGRL) [compound 2]	+	+
73 (F[AllylGly]IGRH-NH2; N-terminus assumed; SMILES C=CC[C@H](NC(=O)[C@@H](N)Cc1ccccc1)C(=O)N[C@H](C(=O)NCC(=O)N[C@@H](CCCNC(=N)N)C(=O)N[C@@H](Cc1c[nH]cn1)C(N)=O)[C@@H](C)CC) [compound 73]	+	+
29 (F[AllylGly]GGRL-NH2; N-terminus assumed; SMILES C=CC[C@H](NC(=O)[C@@H](N)Cc1ccccc1)C(=O)NCC(=O)NCC(=O)N[C@@H](CCCNC(=N)N)C(=O)N[C@@H](CC(C)C)C(N)=O) [compound 29]	+	+
20 (R[AllylGly]IGRL-NH2; N-terminus assumed; SMILES C=CC[C@H](NC(=O)[C@@H](N)CCCNC(=N)N)C(=O)N[C@H](C(=O)NCC(=O)N[C@@H](CCCNC(=N)N)C(=O)N[C@@H](CC(C)C)C(N)=O)[C@@H](C)CC) [compound 20]	+	−
75 (F[AllylGly]IGRR-NH2; N-terminus assumed; SMILES C=CC[C@H](NC(=O)[C@@H](N)Cc1ccccc1)C(=O)N[C@H](C(=O)NCC(=O)N[C@@H](CCCNC(=N)N)C(=O)N[C@@H](CCCNC(=N)N)C(N)=O)[C@@H](C)CC) [compound 75]	+	−
47 (F[AllylGly]IERL-NH2; N-terminus assumed; SMILES C=CC[C@H](NC(=O)[C@@H](N)Cc1ccccc1)C(=O)N[C@H](C(=O)N[C@@H](CCC(=O)O)C(=O)N[C@@H](CCCNC(=N)N)C(=O)N[C@@H](CC(C)C)C(N)=O)[C@@H](C)CC) [compound 47]	+	+
18 (H[AllylGly]IGRL-NH2; N-terminus assumed; SMILES C=CC[C@H](NC(=O)[C@@H](N)Cc1c[nH]cn1)C(=O)N[C@H](C(=O)NCC(=O)N[C@@H](CCCNC(=N)N)C(=O)N[C@@H](CC(C)C)C(N)=O)[C@@H](C)CC) [compound 18]	−	−
85 (F[AllylGly]IGRM-NH2; N-terminus assumed; SMILES C=CC[C@H](NC(=O)[C@@H](N)Cc1ccccc1)C(=O)N[C@H](C(=O)NCC(=O)N[C@@H](CCCNC(=N)N)C(=O)N[C@@H](CCSC)C(N)=O)[C@@H](C)CC) [compound 85]	+	+
11 (V[AllylGly]IGRL-NH2; N-terminus assumed; SMILES C=CC[C@H](NC(=O)[C@@H](N)C(C)C)C(=O)N[C@H](C(=O)NCC(=O)N[C@@H](CCCNC(=N)N)C(=O)N[C@@H](CC(C)C)C(N)=O)[C@@H](C)CC) [compound 11]	−	−
31 (F[AllylGly]HGRL-NH2; N-terminus assumed; SMILES C=CC[C@H](NC(=O)[C@@H](N)Cc1ccccc1)C(=O)N[C@@H](Cc1c[nH]cn1)C(=O)NCC(=O)N[C@@H](CCCNC(=N)N)C(=O)N[C@@H](CC(C)C)C(N)=O) [compound 31]	+	+
87 (F[AllylGly]IGRI-NH2; N-terminus assumed; SMILES C=CC[C@H](NC(=O)[C@@H](N)Cc1ccccc1)C(=O)N[C@H](C(=O)NCC(=O)N[C@@H](CCCNC(=N)N)C(=O)N[C@H](C(N)=O)[C@@H](C)CC)[C@@H](C)CC) [compound 87]	+	+
6 (Q[AllylGly]IGRL-NH2; N-terminus assumed; SMILES C=CC[C@H](NC(=O)[C@@H](N)CCC(N)=O)C(=O)N[C@H](C(=O)NCC(=O)N[C@@H](CCCNC(=N)N)C(=O)N[C@@H](CC(C)C)C(N)=O)[C@@H](C)CC) [compound 6]	−	−
53 (F[AllylGly]ISRL-NH2; N-terminus assumed; SMILES C=CC[C@H](NC(=O)[C@@H](N)Cc1ccccc1)C(=O)N[C@H](C(=O)N[C@@H](CO)C(=O)N[C@@H](CCCNC(=N)N)C(=O)N[C@@H](CC(C)C)C(N)=O)[C@@H](C)CC) [compound 53]	+	+
5 (M[AllylGly]IGRL-NH2; N-terminus assumed; SMILES C=CC[C@H](NC(=O)[C@@H](N)CCSC)C(=O)N[C@H](C(=O)NCC(=O)N[C@@H](CCCNC(=N)N)C(=O)N[C@@H](CC(C)C)C(N)=O)[C@@H](C)CC) [compound 5]	+	−
15 (W[AllylGly]IGRL-NH2; N-terminus assumed; SMILES C=CC[C@H](NC(=O)[C@@H](N)Cc1c[nH]c2ccccc12)C(=O)N[C@H](C(=O)NCC(=O)N[C@@H](CCCNC(=N)N)C(=O)N[C@@H](CC(C)C)C(N)=O)[C@@H](C)CC) [compound 15]	+	−
4 (F[dAllylGly]IGR-NH2; N-terminus assumed; SMILES C=CC[C@@H](NC(=O)[C@@H](N)Cc1ccccc1)C(=O)N[C@H](C(=O)NCC(=O)N[C@@H](CCCNC(=N)N)C(N)=O)[C@@H](C)CC) [compound 4]	−	−
34 (F[AllylGly]QGRL-NH2; N-terminus assumed; SMILES C=CC[C@H](NC(=O)[C@@H](N)Cc1ccccc1)C(=O)N[C@@H](CCC(N)=O)C(=O)NCC(=O)N[C@@H](CCCNC(=N)N)C(=O)N[C@@H](CC(C)C)C(N)=O) [compound 34]	+	+
1 (FCIGRL; Peptide tight junction agonist) [compound 1]	+	+
30 (F[AllylGly]AGRL-NH2; N-terminus assumed; SMILES C=CC[C@H](NC(=O)[C@@H](N)Cc1ccccc1)C(=O)N[C@@H](C)C(=O)NCC(=O)N[C@@H](CCCNC(=N)N)C(=O)N[C@@H](CC(C)C)C(N)=O) [compound 30]	+	+
39 (F[AllylGly]ITRL-NH2; N-terminus assumed; SMILES C=CC[C@H](NC(=O)[C@@H](N)Cc1ccccc1)C(=O)N[C@H](C(=O)N[C@H](C(=O)N[C@@H](CCCNC(=N)N)C(=O)N[C@@H](CC(C)C)C(N)=O)[C@@H](C)O)[C@@H](C)CC) [compound 39]	+	+
